Source: patent publication US20260083865A1, “PROSTATE SPECIFIC MEMBRANE ANTIGEN (PSMA) LIGANDS AND USE THEREOF” (priority 2022, published 2026)
Read-outs that look alike come from different tables or passages of the source. Numbered stars: 1 amine (or outer) side, 2 acyl side, 3 side chain; on linkers, the order of the positions; unused ones are H or OH. Bridge positions count the residues as written; N and C are the ends. Square brackets hold non-standard residues; d marks the D form. Peptide text beside a SMILES is read from it. * marks the point of attachment. TtdsdLys(DOTA)NH2 = NC(=O)[C@@H](CCCCNC(=O)CN1CCN(CC(=O)O)CCN(CC(=O)O)CCN(CC(=O)O)CC1)NC(=O)CCC(=O)NCCCOCCOCCOCCCN*; DOTA = O=C(O)CN1CCN(CC(=O)O)CCN(CC(=O)*)CCN(CC(=O)O)CC1; Phe(4-Cl) = N[C@@H](Cc1ccc(Cl)cc1)C(=O)O; Propanoyl(3-SO2NH2) = NS(=O)(=O)CCC(=O)*; NMeT = CN[C@H](C(=O)O)[C@@H](C)O; X1 = O=C(CC1CCN([*:1])CC1)[*:2]; Tle = CC(C)(C)[C@H](N)C(=O)O; 4Amb = NCc1ccc(C(=O)O)cc1; Nle = CCCC[C@H](N)C(=O)O; Hexanoyl = CCCCCC(=O)*; Aib = CC(C)(N)C(=O)O

Legend:
[1] = target: T1, PSMA-expressing C4-2 cells (Homo sapiens, UniProt Q04609); assay: FACS binding assay (competition with 50 nM PSM-0183); settings: read-out: pIC50 [C4-2] CAT (converted)
T1 construct: PSMA-expressing C4-2 cells (ATCC, Cat. No. CRL-3314) were cultured in RPMI-1640; host or cells: C4-2 cells
T1 sequence (Q04609 whole entry): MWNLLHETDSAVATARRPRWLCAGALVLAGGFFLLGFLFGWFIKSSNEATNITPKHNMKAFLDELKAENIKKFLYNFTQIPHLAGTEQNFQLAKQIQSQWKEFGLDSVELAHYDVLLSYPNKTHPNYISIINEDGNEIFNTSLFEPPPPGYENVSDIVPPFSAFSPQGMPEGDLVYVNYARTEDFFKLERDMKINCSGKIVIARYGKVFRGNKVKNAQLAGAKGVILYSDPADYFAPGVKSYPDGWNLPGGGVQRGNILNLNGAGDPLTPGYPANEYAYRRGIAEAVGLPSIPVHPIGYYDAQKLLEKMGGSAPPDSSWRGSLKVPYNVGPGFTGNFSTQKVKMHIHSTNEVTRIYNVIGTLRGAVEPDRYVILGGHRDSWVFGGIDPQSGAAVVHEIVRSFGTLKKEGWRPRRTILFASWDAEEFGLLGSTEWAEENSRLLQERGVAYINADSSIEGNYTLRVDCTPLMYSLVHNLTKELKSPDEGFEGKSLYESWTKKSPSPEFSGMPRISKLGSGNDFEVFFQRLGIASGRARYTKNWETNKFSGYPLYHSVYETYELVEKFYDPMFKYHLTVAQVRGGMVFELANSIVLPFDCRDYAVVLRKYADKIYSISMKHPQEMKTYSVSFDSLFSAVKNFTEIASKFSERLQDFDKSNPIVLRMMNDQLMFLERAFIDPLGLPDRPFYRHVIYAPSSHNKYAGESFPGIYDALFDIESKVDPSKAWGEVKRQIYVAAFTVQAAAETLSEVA
In short: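 C4-2 cells were incubated 1 h at 4 °C with 50 nM AF488-labelled peptide PSM-0183 plus increasing test compound concentrations, then washed twice in ice-cold buffer. Median fluorescence in the AF488 channel was read by flow cytometry. IC50/pIC50 was derived by 4PL fitting of MFI versus concentration.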

[2] = target: T2, Fc-fusion protein of human PSMA (hPSMA-Fc) (Homo sapiens, UniProt Q04609); assay: Surface plasmon resonance assay (Biacore T200, single cycle kinetic); type: binding; settings: hPSMA-Fc, 25° C., read-out: pKD CAT (converted)
T2 construct: purchased Acro Biosystems PSA-H5264
T2 sequence (Q04609 44-750 limits assumed): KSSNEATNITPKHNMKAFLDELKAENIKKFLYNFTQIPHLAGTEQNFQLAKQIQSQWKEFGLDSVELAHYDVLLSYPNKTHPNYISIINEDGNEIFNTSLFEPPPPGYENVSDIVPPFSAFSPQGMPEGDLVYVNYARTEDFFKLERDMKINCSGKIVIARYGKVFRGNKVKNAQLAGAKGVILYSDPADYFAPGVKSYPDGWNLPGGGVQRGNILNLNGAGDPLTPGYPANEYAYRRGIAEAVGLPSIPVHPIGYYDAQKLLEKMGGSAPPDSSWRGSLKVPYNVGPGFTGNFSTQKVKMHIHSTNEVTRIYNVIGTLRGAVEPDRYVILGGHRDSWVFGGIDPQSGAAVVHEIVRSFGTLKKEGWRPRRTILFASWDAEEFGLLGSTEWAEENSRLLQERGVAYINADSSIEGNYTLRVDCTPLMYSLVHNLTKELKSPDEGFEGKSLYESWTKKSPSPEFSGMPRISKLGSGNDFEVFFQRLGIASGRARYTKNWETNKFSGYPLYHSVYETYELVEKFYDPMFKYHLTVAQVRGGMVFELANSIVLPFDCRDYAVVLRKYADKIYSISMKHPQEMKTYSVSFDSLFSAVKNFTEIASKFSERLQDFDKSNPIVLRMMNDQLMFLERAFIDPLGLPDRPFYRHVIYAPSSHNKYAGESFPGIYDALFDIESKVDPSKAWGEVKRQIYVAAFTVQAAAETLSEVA
In short: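 hPSMA-Fc was captured (~1000 RU) on an Fc-binding-peptide CM5 chip, and compounds were run in single cycle kinetic mode at 25° C in HBST with 0.1% DMSO. Double-blank-corrected sensorgrams were fitted to a 1:1 Langmuir model to give KD, reported as pKD.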

[3] = FACS binding, C4-2 cells, competition with 50 nM PSM-0183, category
[4] = SPR, single cycle kinetic, category
[5] = pIC50 category of FACS binding, C4-2 cells
[6] = pKD category for PSMA SPR activity assay

## CC(=O)NC(=N)NCCC[C@@H]1NC(=O)[C@H](CCCCN)NC(=O)[C@@H](NC(=O)[C@H](Cc2ccc(Cl)cc2)NC(=O)C(C)(C)NC(C)=O)CSSC[C@@H](C(=O)N[C@H](C(=O)N[C@H](C(=O)N2CCC(CC(=O)N[C@H](CCCCNC(=O)CN3CCN(CC(=O)O)CCN(CC(=O)O)CCN(CC(=O)O)CC3)C(N)=O)CC2)[C@@H](C)O)C(C)(C)C)NC(=O)[C@H](CC(N)=O)NC(=O)C(C)(C)NC1=O [PSM-0298, Ac-Aib-Pcf-[Cys-Lys-Arg(Ac)-Aib-Asn-Cys]-Tle-Thr-Cmp-lys(DOTA)-NH2] (Ac-[Aib][Phe(4-Cl)]CKR(Ac)[Aib]NC[Tle]T[X1][dK](DOTA)-NH2; disulfide 3-8)
[1]; FACS binding, PSMA-expressing C4-2 cells, pIC50 category
  IC50: 200 to 1260 nM
[2]; PSMA SPR assay, pKD category
  Kd: 12.6 to 126 nM

## C[C@@H](O)[C@H](NC(=O)[C@@H](NC(=O)[C@@H]1CSSC[C@H](NC(=O)[C@H](Cc2ccccc2)NC(=O)C(C)(C)NC(=O)[C@@H](NC(=O)c2ccc(CNC(=O)CN3CCN(CC(=O)O)CCN(CC(=O)O)CCN(CC(=O)O)CC3)cc2)[C@@H](C)O)C(=O)N[C@@H](CCCCN)C(=O)N[C@@H](CCCNC(=N)N)C(=O)NC(C)(C)C(=O)N[C@@H](CC(N)=O)C(=O)N1)C(C)(C)C)C(N)=O [PSM-0202, DOTA-Pamb-Thr-Aib-Phe-[Cys-Lys-Arg-Aib-Asn-Cys]-Tle-Thr-NH2] ({DOTA-4Amb}-T[Aib]FCKR[Aib]NC[Tle]T-NH2; disulfide 4-9)
[1]; [3]
  IC50: < 200 nM
[2]; [4]
  Kd: < 12.6 nM

## C[C@H](NC(=O)[C@H]([C@@H](C)O)N(C)C(=O)CC1CCN(C(=O)CN2CCN(CC(=O)O)CCN(CC(=O)O)CCN(CC(=O)O)CC2)CC1)C(=O)N[C@@H](Cc1ccc(Cl)cc1)C(=O)N[C@H]1CSSC[C@@H](C(=O)N[C@H](C(=O)N[C@H](C(N)=O)[C@@H](C)O)C(C)(C)C)NC(=O)[C@H](CC(N)=O)NC(=O)C(C)(C)NC(=O)[C@H](CCCNC(=N)N)NC(=O)[C@H](CCCCN)NC1=O [PSM-0455, DOTA-Cmp-Nmt-Ala-Pcf-[Cys-Lys-Arg-Aib-Asn-Cys]-Tle-Thr-NH2] ({DOTA}-[X1][NMeT]A[Phe(4-Cl)]CKR[Aib]NC[Tle]T-NH2; disulfide 5-10)
[1]; [5]
  IC50: 200 to 1260 nM
[2]; [6]
  Kd: 126 to 501 nM

## CCCC[C@H](NC(=O)[C@@H]1CSSC[C@H](NC(=O)[C@H](Cc2ccccc2)NC(=O)[C@@H]2CCCN2C(=O)[C@@H](NC(C)=O)[C@@H](C)O)C(=O)N[C@@H](CCCCN)C(=O)N[C@@H](CCCNC(=N)N)C(=O)N[C@@H](C)C(=O)N[C@@H](CC(N)=O)C(=O)N1)C(=O)N[C@H](C(=O)N[C@@H](CC(=O)O)C(N)=O)[C@@H](C)O [PSM-0547, Ac-Thr-Pro-Phe-[Cys-Lys-Arg-Ala-Asn-Cys]-Nle-Thr-Asp-NH2] (Ac-TPFCKRANC[Nle]TD-NH2; disulfide 4-9)
[1]; [5]
  IC50: < 200 nM
[2]; [6]
  Kd: 12.6 to 126 nM

## CCCCCC(=O)N[C@H](C(=O)NC(C)(C)C(=O)N[C@@H](Cc1ccccc1)C(=O)N[C@H]1CSSC[C@@H](C(=O)N[C@H](C(=O)N[C@H](C(=O)NCCCOCCOCCOCCCNC(=O)CCC(=O)N[C@H](CCCCNC(=O)CN2CCN(CC(=O)O)CCN(CC(=O)O)CCN(CC(=O)O)CC2)C(N)=O)[C@@H](C)O)C(C)(C)C)NC(=O)[C@H](CC(N)=O)NC(=O)[C@H](C)NC(=O)[C@H](CCCNC(=N)N)NC(=O)[C@H](CCCCN)NC1=O)[C@@H](C)O [PSM-0462, Hex-Thr-Aib-Phe-[Cys-Lys-Arg-Ala-Asn-Cys]-Tle-Thr-Ttds-lys(DOTA)-NH2] (Hexanoyl-T[Aib]FCKRANC[Tle]T-{TtdsdLys(DOTA)NH2}; disulfide 4-9)
[1]; [5]
  IC50: < 200 nM
[2]; [6]
  Kd: < 12.6 nM

## C[C@@H](O)[C@H](NC(=O)[C@@H](NC(=O)[C@@H]1CSSC[C@H](NC(=O)[C@H](Cc2ccccc2)NC(=O)C(C)(C)NC(=O)CCS(N)(=O)=O)C(=O)N[C@@H](CCCCN)C(=O)N[C@@H](CCCNC(=N)N)C(=O)NC(C)(C)C(=O)N[C@@H](CC(N)=O)C(=O)N1)C(C)(C)C)C(N)=O [PSM-0224, SaPr-Aib-Phe-[Cys-Lys-Arg-Aib-Asn-Cys]-Tle-Thr-NH2] ({Propanoyl(3-SO2NH2)}-[Aib]FCKR[Aib]NC[Tle]T-NH2; disulfide 3-8)
[1]; [3]
  IC50: < 200 nM
[2]; [4]
  Kd: < 12.6 nM
